Values quoted from earlier work, collected in patent US5030442A (priority 1989, dated 1991).
“Also recorded” adds a separate entry of the source.

Details: topical form, initial clinical studies

**Q.** With `Nc1cc(N2CCCCC2)nc(N)[n+]1[O-]` [minoxidil] as the molecule, how does the “hair growth response (in words)” value read?
**A.** reversal of male pattern baldness is most favorable in younger men, and where recent hair loss has occurred; also recorded: new hair growth is observed in a significant percentage of older men and/or where in cases of long-term baldness
